Test results taken from patent US20080139480A1, “Combination Of (A) N--4-(3- Pyridyl)-2-Pyrimidine-Amine And (B) At Least One Hypusination Inhibitor And The UseThereof” (priority 2003, published 2008).
“Also recorded” adds a separate entry of the source.

Assays:
Assay type in all cases: cell-based
[1] = test system: Bcr-Abl positive K562 cells; assay: MTT assay, growth inhibition / cellular cytotoxicity; conditions: 24 h, ciclopirox 0 to 81 μM
Method: (§1) K562 cells were obtained from DSMZ (Bielefeld, Germany). HL-60 lines were kindly provided by Dr. Bühring (Tübingen, Germany). Both cell lines are cultured in RPMI 1640 medium (Gibco-BRL, Invitrogen, UK) containing 10% fetal calf serum (FCS) (Biochrom KG, Berlin, Germany). The cells are incubated at 37° C. in a humidified atmosphere with 5% CO2 in air.
(§2) K652 and HL-60 cells are plated into 96-well flat-bottomed microtiter plates (Becton Dickinson, Heidelberg, Germany) at 1.5×10^4 cells/well in 150 μl of their respective media.
(§3) All analyses are performed in triplicates. After 24 and 48 hours, the viable cells in each well are assayed for their ability to transform 3-(4,5-dimethylthiazol-2-yl)-2,5-diphenyltetrazolium bromide (MTT) into a purple formazan (Twentyman et al., Br. J. Haematol. 71, 19-24 (1989), Arnould et al., Anticancer Res. 10, 145-154 (1990)). Therefore, 10 μl of a 10 mg/ml MTT solution is added in each well. After an incubation period of 2 hours at 37° C., the purple formazan is released by adding lysis buffer (15% sodium dodecyl sulfate [SDS] in DMF/H2O 1:1, pH 4.5) and shaking overnight in the dark. The absorbance of the samples is measured on an enzyme-linked immunosorbent assay (ELISA) plate reader (Dynatech MR7000) at 570 nm. […]

[2] = test system: Bcr-Abl-negative HL-60 cells; assay: as above; conditions: ciclopirox 0 to 81 μM
Method: as §1, §2, §3

[3] = test system: Bcr-Abl negative HL-60 cells; assay: Apoptosis, flow cytometric evaluation of hypodiploid nuclei; conditions: ciclopirox 0 to 81 μM
Method: (§4) K562 and HL-60 (2×10^5 cells per well) are cultured in 24-well tissue plates under the conditions described above.
(§5) Briefly, nuclei are prepared by lysing cells in a hypotonic lysis buffer (1% sodium citrate, 0.1% Trition X-100, 50 μg propidium iodide per ml) and subsequently analyzed by flow cytometry. Nuclei to the left of the 2N peak containing hypodiploid DNA are considered as apoptotic. Flow cytometric analysis are performed on a FACScalibur (Becton Dickinson) using […] analysis software.
(§6) Apoptosis was also measured after 24 h by flow cytometric evaluation of hypodiploid nuclei as described in above Methods.

[4] = test system: Bcr-Abl-positive K562 cells; assay: as above; conditions: ciclopirox 0 to 81 μM
Method: as §4, §5, §6

For `Cc1cc(C2CCCCC2)n(O)c(=O)c1` [ciclopirox, 6-cyclohexyl-1-hydroxy-4-methyl-2(1H)-pyridinone], the “growth inhibition / cell viability, single agent” value [1] was “inhibits cell viability; also recorded: anti-proliferative effect was detected”, the “cell viability, single agent” value [2] was “inhibits cell viability” and the “induction of apoptosis, single agent” value [3] was “induces apoptosis”. The “induction of apoptosis, single agent” value [4] was “induces apoptosis”.
